# Experiments:
# HCT-116 = experiment: Anticancer activity against human HCT-116 cells assessed as inhibition of cell viability incubated for 16 hrs by MTT assay; assay type: functional, cell-based; details: HCT-116, 16 h
# [1] = Cytotoxicity against HEK293 cells assessed as reduction in cell viability incubated for 16 hrs by MTT assay; assay type: toxicity, cell-based; details: human
SMILES,IC50 (HCT-116) [µM],IC50 at 16 h [1] [µM]
C/C=C/C/C(C)=C\[C@@H]1C/C=C/C=C/C[C@H](C)/C=C(\C)[C@@H](OC)C/C=C/[C@@H](O)CC(=O)O1,8.9,18.1
C/C=C/C/C(C)=C\[C@H]1C/C=C/C=C/C[C@H](C)/C=C(\C)[C@@H](OC)C/C=C/[C@@H](O)CC(=O)O1,3.2,20.6
C/C=C/C/C(C)=C\[C@H]1C/C=C/C=C/C[C@H](C)/C=C(\C)[C@@H](O)C/C=C/[C@@H](O)CC(=O)O1,6.9,21.6
C/C=C/C/C(C)=C\[C@H]1C/C=C/C=C/CC/C=C(\C)[C@@H](OC)C/C=C/[C@@H](O)CC(=O)O1,6.8,12.5
CO[C@H]1C/C=C/[C@@H](O)CC(=O)O[C@@H](c2ccc(C)cc2)C/C=C/C=C/C[C@H](C)/C=C/1C,7.8,16.5
C/C=C/C/C(C)=C\[C@H]1C/C=C/C=C/C[C@H](C)/C=C(\C)[C@@H](OC)C[C@@H](O)C[C@@H](O)CC(=O)O1,0.1,20.8
